Results as given in the supplement of paper PMC12463676, “Small-molecule dissolution of stress granules by redox modulation benefits ALS models” (Nature Chemical Biology, 2025).

Assays:
lipoamide = compound: NC(=O)CCCCC1CCSS1 [lipoamide]; assay: thermal stability z-score vs DMSO; higher = more thermally stabilized by treatment; settings: HeLa, lipoamide concentration 100 µM
Method: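 Cellular thermal proteome profiling in HeLa cells. Cells were treated with 100 µM lipoamide for 1 h, with or without 1 mM arsenate for a further 1 h, then heated to ten temperatures (37-66.3 °C), and soluble protein was quantified by TMT mass spectrometry relative to 0.1% DMSO controls. The thermal stability score (sum of log2 fold changes minus the abundance score) was transformed to a z-score; mean of n = 3 experiments.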

potassium arsenate = compound: O=[As]([O-])(O)O.[K+] [potassium arsenate]; assay: as above; settings: HeLa; arsenate concentration 1 mM
Method: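 Cellular thermal proteome profiling in HeLa cells treated with 1 mM arsenate for 1 h (DMSO pretreatment), heated to ten temperatures (37-66.3 °C). Soluble protein was quantified by TMT mass spectrometry relative to DMSO controls; the thermal stability score was transformed to a z-score; mean of n = 3 experiments.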

[1] = arsenate co-treatment: 1 mM arsenate 1 h
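Also: each temperature applied for 3 min, abundance score taken as mean log2 fold change at the two lowest temperatures, z-score obtained by mean subtraction and division by SD.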

Chain of UniProt Q9UHD1 (Q9UHD1 whole entry): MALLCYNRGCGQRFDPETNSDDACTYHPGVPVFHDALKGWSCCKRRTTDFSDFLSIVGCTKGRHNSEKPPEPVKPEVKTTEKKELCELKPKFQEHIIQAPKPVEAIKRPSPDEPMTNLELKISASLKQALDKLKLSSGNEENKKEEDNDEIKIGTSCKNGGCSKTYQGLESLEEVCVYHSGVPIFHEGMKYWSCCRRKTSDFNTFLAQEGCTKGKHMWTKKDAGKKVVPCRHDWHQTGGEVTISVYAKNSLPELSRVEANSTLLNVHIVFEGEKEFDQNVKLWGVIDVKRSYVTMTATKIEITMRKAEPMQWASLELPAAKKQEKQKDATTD
Chain of UniProt Q8NFW8 (Q8NFW8 whole entry): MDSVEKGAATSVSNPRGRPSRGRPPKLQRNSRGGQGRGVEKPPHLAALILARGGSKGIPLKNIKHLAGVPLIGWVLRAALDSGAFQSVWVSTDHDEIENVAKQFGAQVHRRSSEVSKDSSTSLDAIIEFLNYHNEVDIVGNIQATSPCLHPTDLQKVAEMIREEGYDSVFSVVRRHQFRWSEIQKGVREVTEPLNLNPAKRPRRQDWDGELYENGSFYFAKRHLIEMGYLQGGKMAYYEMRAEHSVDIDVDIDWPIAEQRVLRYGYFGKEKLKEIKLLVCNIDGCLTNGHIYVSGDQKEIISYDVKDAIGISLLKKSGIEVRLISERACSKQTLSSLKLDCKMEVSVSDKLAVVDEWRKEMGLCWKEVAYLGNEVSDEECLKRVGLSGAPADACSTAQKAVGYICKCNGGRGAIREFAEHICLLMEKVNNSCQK
Chain of UniProt P0CG13 (P0CG13 whole entry): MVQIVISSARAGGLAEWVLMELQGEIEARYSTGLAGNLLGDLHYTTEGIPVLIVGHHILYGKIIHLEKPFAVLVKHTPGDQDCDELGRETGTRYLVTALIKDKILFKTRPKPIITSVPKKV
Chain of UniProt Q9Y3E7 (Q9Y3E7 whole entry): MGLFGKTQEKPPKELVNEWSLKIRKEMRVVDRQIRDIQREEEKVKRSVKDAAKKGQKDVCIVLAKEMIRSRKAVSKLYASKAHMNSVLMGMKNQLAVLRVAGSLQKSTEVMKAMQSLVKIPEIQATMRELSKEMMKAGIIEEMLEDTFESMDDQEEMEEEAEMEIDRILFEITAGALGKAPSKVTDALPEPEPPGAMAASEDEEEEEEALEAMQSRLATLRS
Chain of UniProt Q9NRP2 (Q9NRP2 whole entry): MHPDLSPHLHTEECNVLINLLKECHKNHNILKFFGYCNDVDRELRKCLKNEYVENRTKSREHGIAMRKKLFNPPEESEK
Chain of UniProt Q96CF2 (Q96CF2 whole entry): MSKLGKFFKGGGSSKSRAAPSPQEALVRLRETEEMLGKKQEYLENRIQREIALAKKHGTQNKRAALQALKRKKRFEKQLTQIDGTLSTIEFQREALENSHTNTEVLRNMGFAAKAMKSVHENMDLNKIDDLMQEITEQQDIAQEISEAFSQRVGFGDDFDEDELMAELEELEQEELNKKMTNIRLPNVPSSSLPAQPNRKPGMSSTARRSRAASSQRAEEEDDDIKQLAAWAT
Chain of UniProt P0C7P0 (P0C7P0 whole entry): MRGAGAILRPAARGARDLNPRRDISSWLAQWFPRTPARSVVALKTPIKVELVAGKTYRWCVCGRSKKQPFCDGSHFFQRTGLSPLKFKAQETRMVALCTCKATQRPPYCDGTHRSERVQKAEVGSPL
Chain of UniProt Q96FZ7 (Q96FZ7 whole entry): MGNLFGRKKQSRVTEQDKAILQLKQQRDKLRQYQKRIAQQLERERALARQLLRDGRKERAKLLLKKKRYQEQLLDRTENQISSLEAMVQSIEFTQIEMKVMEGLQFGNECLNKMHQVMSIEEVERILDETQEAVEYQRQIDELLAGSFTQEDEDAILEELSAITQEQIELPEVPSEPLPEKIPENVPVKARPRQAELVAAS
Chain of UniProt Q9NZ45 (Q9NZ45 whole entry): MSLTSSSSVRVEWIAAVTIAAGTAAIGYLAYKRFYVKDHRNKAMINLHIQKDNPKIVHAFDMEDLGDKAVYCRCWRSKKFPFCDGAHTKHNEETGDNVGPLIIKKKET
Chain of UniProt Q07065 (Q07065 whole entry): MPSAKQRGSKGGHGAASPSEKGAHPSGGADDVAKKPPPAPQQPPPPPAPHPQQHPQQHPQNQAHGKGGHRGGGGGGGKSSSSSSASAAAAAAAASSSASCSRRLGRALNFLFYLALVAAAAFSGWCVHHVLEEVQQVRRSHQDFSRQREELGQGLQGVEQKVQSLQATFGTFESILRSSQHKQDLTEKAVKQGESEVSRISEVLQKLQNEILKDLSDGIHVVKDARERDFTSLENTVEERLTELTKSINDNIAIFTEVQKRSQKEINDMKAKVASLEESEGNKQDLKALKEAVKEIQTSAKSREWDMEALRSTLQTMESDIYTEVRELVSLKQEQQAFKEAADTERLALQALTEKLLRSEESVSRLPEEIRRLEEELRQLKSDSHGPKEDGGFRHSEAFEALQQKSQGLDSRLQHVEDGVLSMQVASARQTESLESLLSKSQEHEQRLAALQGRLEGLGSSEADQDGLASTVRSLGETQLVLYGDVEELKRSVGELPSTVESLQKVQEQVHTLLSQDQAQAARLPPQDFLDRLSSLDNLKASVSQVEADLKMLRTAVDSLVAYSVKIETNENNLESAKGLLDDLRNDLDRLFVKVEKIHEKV
Chain of UniProt O96005 (O96005 whole entry): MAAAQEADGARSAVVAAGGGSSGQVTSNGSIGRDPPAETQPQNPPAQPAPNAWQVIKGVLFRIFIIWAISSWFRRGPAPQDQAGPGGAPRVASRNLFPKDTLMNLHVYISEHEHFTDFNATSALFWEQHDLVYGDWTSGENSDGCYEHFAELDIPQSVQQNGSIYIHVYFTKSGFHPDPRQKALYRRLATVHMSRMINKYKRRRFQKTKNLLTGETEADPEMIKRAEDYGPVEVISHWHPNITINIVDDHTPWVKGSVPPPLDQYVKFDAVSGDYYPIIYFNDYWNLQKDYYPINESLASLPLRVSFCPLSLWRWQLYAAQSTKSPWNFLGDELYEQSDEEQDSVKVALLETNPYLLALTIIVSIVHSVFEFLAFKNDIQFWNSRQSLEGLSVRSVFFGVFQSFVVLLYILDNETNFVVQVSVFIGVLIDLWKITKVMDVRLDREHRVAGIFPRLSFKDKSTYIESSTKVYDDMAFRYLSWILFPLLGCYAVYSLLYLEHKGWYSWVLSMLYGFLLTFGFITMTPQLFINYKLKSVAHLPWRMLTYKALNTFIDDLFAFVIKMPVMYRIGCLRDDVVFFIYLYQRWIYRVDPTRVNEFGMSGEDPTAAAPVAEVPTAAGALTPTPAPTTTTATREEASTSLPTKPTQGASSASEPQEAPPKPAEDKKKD
Chain of UniProt Q96KA5 (Q96KA5 whole entry): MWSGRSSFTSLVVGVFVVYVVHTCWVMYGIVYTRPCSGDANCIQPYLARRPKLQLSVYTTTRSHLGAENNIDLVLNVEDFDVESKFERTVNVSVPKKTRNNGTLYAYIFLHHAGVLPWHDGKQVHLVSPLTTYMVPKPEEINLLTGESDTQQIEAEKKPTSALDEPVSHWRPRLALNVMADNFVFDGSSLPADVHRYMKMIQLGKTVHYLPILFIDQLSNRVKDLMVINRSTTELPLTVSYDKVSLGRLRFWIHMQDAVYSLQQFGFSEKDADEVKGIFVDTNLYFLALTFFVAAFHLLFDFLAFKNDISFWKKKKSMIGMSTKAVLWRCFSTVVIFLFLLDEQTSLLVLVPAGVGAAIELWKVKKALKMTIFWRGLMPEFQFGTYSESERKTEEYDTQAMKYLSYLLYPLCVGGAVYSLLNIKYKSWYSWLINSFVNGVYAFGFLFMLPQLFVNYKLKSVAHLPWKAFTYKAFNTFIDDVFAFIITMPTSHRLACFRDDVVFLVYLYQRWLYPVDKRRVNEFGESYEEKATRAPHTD
Chain of UniProt O76071 (O76071 whole entry): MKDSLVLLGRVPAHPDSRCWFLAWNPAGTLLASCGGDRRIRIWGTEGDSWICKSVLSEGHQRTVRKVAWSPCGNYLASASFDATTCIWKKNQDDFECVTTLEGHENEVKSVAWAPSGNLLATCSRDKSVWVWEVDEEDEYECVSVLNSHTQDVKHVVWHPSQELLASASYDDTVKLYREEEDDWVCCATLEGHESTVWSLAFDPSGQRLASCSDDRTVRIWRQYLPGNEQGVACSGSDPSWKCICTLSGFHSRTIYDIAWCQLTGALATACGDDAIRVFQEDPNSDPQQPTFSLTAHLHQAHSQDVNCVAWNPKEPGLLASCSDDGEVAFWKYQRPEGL
Chain of UniProt Q9H444 (Q9H444 whole entry): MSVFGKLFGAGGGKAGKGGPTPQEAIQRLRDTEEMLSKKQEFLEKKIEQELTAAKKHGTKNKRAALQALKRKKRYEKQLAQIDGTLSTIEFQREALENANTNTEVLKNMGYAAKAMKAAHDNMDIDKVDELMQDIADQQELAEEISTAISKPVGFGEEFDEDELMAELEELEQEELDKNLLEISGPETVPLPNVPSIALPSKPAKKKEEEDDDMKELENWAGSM
Chain of UniProt Q14677 (Q14677 whole entry): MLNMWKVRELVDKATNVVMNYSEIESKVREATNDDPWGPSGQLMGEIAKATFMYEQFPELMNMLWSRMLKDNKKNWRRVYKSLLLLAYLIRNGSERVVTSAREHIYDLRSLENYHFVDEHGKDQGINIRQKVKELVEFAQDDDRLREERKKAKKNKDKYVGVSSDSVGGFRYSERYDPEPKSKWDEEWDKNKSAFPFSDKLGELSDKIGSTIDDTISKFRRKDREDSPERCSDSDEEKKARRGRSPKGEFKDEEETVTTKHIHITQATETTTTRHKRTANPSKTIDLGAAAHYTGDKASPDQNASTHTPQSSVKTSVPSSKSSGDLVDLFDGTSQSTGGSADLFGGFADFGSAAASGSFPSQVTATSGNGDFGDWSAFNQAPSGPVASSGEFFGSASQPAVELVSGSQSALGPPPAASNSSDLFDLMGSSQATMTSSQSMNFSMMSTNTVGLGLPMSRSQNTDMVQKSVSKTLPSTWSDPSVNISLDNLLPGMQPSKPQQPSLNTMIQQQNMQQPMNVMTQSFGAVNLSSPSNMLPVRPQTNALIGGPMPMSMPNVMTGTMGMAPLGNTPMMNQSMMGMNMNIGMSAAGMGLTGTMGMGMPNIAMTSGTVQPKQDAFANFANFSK

Row | Target | thermal stability z-score (lipoamide; [1]) | thermal stability z-score (lipoamide; arsenate co-treatment: none) | thermal stability z-score (potassium arsenate)
1 | CHMP1B (UniProt Q7LBR1) | -0.234 | 0.171 | 0.0259
2 | CHMP2A (UniProt O43633) | -0.041 | 0.185 | 0.392
3 | CHMP2B (UniProt Q9UQN3) | 0.562 | 0.348 | 0.573
4 | CHMP3 (UniProt Q9Y3E7) | 0.271 | 0.481 | 0.291
5 | CHMP4B (UniProt Q9H444) | 0.0919 | 0.359 | -0.176
6 | CHMP4C (UniProt Q96CF2) | -0.0236 | -0.694 | -0.789
7 | CHMP5 (UniProt Q9NZZ3) | 0.869 | 0.597 | -0.246
8 | CHMP6 (UniProt Q96FZ7) | 0.476 | 0.273 | 0.217
9 | CHMP7 (UniProt Q8WUX9) | -0.517 | -0.865 | -0.0641
10 | CHORDC1 (UniProt Q9UHD1) | 0.149 | 0.043 | -0.23
11 | CHP1 (UniProt Q99653) | 0.377 | 0.436 | 1.28
12 | CHPF2 (UniProt Q9P2E5) | -0.824 | -0.516 | -0.154
13 | CHPF (UniProt Q8IZ52) | -1.5 | -0.387 | -0.257
14 | CHRAC1 (UniProt Q9NRG0) | -0.123 | 0.285 | -0.28
15 | CHST14 (UniProt Q8NCH0) | -0.943 | -0.167 | -0.359
16 | CHSY1 (UniProt Q86X52) | -0.212 | -0.333 | -0.171
17 | CHTF8 (UniProt P0CG13) | 1.3 | 0.577 | 0.975
18 | CHTF18 (UniProt Q8WVB6) | -0.117 | -0.0426 | -0.0702
19 | CHTOP (UniProt Q9Y3Y2) | 1.86 | 0.726 | 0.73
20 | CHUK (UniProt O15111) | 0.887 | 0.727 | 0.578
21 | CHURC1 (UniProt Q8WUH1) | -0.539 | -0.988 | -0.122
22 | CIAO1 (UniProt O76071) | 0.164 | 0.0342 | -1.32
23 | CIAPIN1 (UniProt Q6FI81) | 0.671 | 0.397 | 0.186
24 | CIC (UniProt Q96RK0) | 0.0454 | -0.131 | -0.261

Row | Target | thermal stability z-score (lipoamide; [1]) | thermal stability z-score (lipoamide; arsenate co-treatment: none) | thermal stability z-score (potassium arsenate)
25 | CINP (UniProt Q9BW66) | -0.0967 | -0.169 | 0.256
26 | CIRBP (UniProt Q14011) | 0.435 | -0.192 | -0.194
27 | CISD1 (UniProt Q9NZ45) | 0.257 | 0.707 | -0.578
28 | CISD2 (UniProt Q8N5K1) | 0.556 | 0.316 | -0.581
29 | CISD3 (UniProt P0C7P0) | 1.09 | 1.49 | 0.0591
30 | CIT (UniProt O14578) | 0.342 | -0.767 | -0.76
31 | CIZ1 (UniProt Q9ULV3) | 0.0439 | -0.505 | -0.0848
32 | CKAP2 (UniProt Q8WWK9) | -0.00358 | 0.0789 | -0.222
33 | CKAP4 (UniProt Q07065) | -3.96 | -2.84 | -0.938
34 | CKAP5 (UniProt Q14008) | -0.095 | -0.0102 | 0.286
35 | CKB (UniProt P12277) | -0.249 | -0.245 | -1.02
36 | CKMT1A (UniProt P12532) | 0.957 | 0.965 | 0.795
37 | CKS1B (UniProt P61024) | 0.525 | 0.603 | 0.573
38 | CKS2 (UniProt P33552) | 0.199 | 0.17 | 0.179
39 | CLASP1 (UniProt Q7Z460) | -0.602 | -0.311 | -0.0658
40 | CLASP2 (UniProt O75122) | -0.0563 | -0.198 | 0.0564
41 | CLASRP (UniProt Q8N2M8) | -0.693 | -0.133 | 0.14
42 | CLCC1 (UniProt Q96S66) | -5.63 | -5.9 | 0.408
43 | CLCN3 (UniProt P51790) | -0.368 | -0.225 | -0.374
44 | CLCN7 (UniProt P51798) | -0.792 | -0.489 | 0.0852
45 | CLEC16A (UniProt Q2KHT3) | 0.0777 | -0.0307 | -0.437
46 | CLIC1 (UniProt O00299) | 0.85 | 0.348 | -0.144
47 | CLIC3 (UniProt O95833) | 0.00456 | 0.0631 | -0.0618
48 | CLIC4 (UniProt Q9Y696) | 0.264 | 0.427 | -0.572

Row | Target | thermal stability z-score (lipoamide; [1]) | thermal stability z-score (lipoamide; arsenate co-treatment: none) | thermal stability z-score (potassium arsenate)
49 | CLINT1 (UniProt Q14677) | 0.199 | 0.142 | 1.08
50 | CLIP1 (UniProt P30622) | -0.0952 | 0.0784 | -0.345
51 | CLMP (UniProt Q9H6B4) | 0.616 | 1.03 | -0.738
52 | CLNS1A (UniProt P54105) | 0.733 | 0.695 | -1.75
53 | CLP1 (UniProt Q92989) | -0.189 | -0.158 | -0.0689
54 | CLPB (UniProt Q9H078) | -0.507 | -0.275 | -0.0952
55 | CLPP (UniProt Q16740) | 0.049 | -0.299 | 0.151
56 | CLPTM1 (UniProt O96005) | -3.11 | -2.81 | 0.0364
57 | CLPTM1L (UniProt Q96KA5) | -2.13 | -1.51 | 0.279
58 | CLPX (UniProt O76031) | -0.306 | -0.172 | 0.139
59 | CLSPN (UniProt Q9HAW4) | -0.352 | 0.214 | 1.12
60 | CLSTN1 (UniProt O94985) | -0.443 | 0.255 | 1.06
61 | CLTA (UniProt P09496) | 1.35 | 1.54 | 0.655
62 | CLTB (UniProt P09497) | 1.48 | 1.89 | 0.557
63 | CLTC (UniProt Q00610) | 0.447 | 0.409 | -0.263
64 | CLTCL1 (UniProt P53675) | 0.147 | 0.15 | 0.858
65 | CLU (UniProt P10909) | -1.81 | -2.08 | 0.0163
66 | CLUH (UniProt O75153) | 0.336 | 1.47 | -0.134
67 | CLYBL (UniProt Q8N0X4) | 0.208 | 0.433 | 0.695
68 | CMAS (UniProt Q8NFW8) | -0.0844 | -0.141 | -0.438
69 | CMBL (UniProt Q96DG6) | 0.865 | 0.482 | -0.162
70 | CMC1 (UniProt Q7Z7K0) | 0.741 | -0.328 | 0.65
71 | CMC2 (UniProt Q9NRP2) | 0.275 | 0.104 | 0.218
